Assays:
[1] = tested on: Plasminogen activator inhibitor type-1 (PAI-1); assay: Plasma PAI-1 level in ob/ob mouse by ELISA kit; assay type: in vivo; conditions: ob/ob mice, oral 2.5 mg/kg, 42 days; compared with saline control group
Source text: (§1) 6-week-old male ob/ob mice were selected. Weight gain was induced by a general diet for 6 weeks. Then, the effect of the PPB prepared in Example 1 was investigated.
(§2) Particularly, the mice were adapted to the animal room environment for 1 week. Then, the mice were divided into two groups, which were fed with a general diet for 42 days (6 weeks). These two groups were the control (saline group) that was fed with a general diet and orally administered with saline and the experimental group (PPB group) that was fed with a general diet and orally administered with PPB at the dose of 2.5 mg/kg.
In order to measure PAI-1, the biomarker for improving blood circulation, blood was collected from the mouse, and the plasma PAI-1 level was measured by using an ELISA kit.

liver tissue = assay: Fat accumulation in liver tissue of ob/ob mouse (Oil-red-O); assay type: in vivo; conditions: ob/ob mice, oral 2.5 mg/kg, 42 days; vs saline group, p<0.005
Source text: as §1, §2
The liver tissues were obtained from the mice of the control group and the experimental group prepared in Example <4-1>. The obtained liver tissues were made into a frozen block, which was sectioned in the thickness of 10 μm. The tissue sections were stained with 0.375% (w/v) Oil-red-O powder. The stained tissues were photographed with Axio Imager Z1 upright microscopy system and the fat accumulation area was measured by using ImageJ 1.50i software.

fat cell = assay: Fat cell size in obesity-induced ob/ob mouse model (H&E staining); assay type: in vivo; conditions: ob/ob mice, oral 2.5 mg/kg, 42 days; vs saline group, p<0.005
Source text: as §1, §2
The adipose tissues were obtained from the mice of the control group and the PPB-treated experimental group prepared in Example <4-1>, and the changes of fat cell size were observed.
Particularly, the adipose tissues obtained from the mice of the control and experimental groups were made into a paraffin block, which was sectioned in the thickness of 7 μm, followed by hematoxylin-eosin staining (H&E staining). The stained tissues were photographed with Axio Imager Z1 upright microscopy system and the cell size was measured by using ImageJ 1.50i software.

[2] = tested on: mouse-derived vascular endothelial cells (SVEC4-10); assay: PPB in vascular endothelial cell death model (palmitic acid), MTT assay; assay type: cell-based; conditions: 0.25 mM palmitic acid, 24 hours
Protocol: Mouse-derived vascular endothelial cells (SVEC4-10) in DMEM (Dulbecco's Modified Eagle Medium) supplemented with 10% fetal bovine serum and 1% antibiotics (penicillin/streptomycin) were cultured in a 37° C., 5% CO2 incubator. To obtain sufficient cells, the cells were cultured in 100 Ø plastic dishes. When the cells were cultured until the bottom of the dish was covered 80% by the cells, the adhered cells were detached using trypsin/EDTA solution and then sub-cultured.
The mouse-derived vascular endothelial cells (SVEC4-10) obtained in Example <5-1> were treated with 0.25 mM palmitic acid, leading to the construction of a vascular endothelial cell death model (in vitro).
The cells were treated with PPB at different concentrations for 24 hours. 24 hours later, MTT assay was performed to confirm the number of survived cells. From the result, the effect of PPB on the survival of vascular endothelial cells in the presence of palmitic acid was analyzed.

Question: Which “blood PAI-1 level” value [1] does the source give for `Oc1cc(O)cc(Oc2c(O)cc(Oc3cc(O)cc(Oc4c(O)cc(O)c5c4Oc4c(O)cc(O)c(-c6c(O)cc(O)c7c6Oc6c(O)cc(O)c(Oc8cc(O)cc(O)c8)c6O7)c4O5)c3)cc2O)c1` [PPB, pyrogallol-phloroglucinol-6,6-bieckol] here?
Answer: The value was “reduced”.

Question: What about the “fat accumulation area in liver tissue” value (liver tissue) of the same molecule?
Answer: Its value is “significantly decreased”.

Question: What about the fat cell size (fat cell) of the same molecule?
Answer: Its fat cell size is “significantly decreased”.

Question: What about the “number of survived cells” value ([2]; 5 ug/ml, vs control non-treated with PPB) of the same molecule?
Answer: Its value is “not much different”.

Question: And the “survival rate of vascular endothelial cells” value ([2]; 10 ug/ml)?
Answer: The value was “significantly increased”.

— patent US20190142886A1, “Ecklonia cava extract and a pharmaceutical composition for preventing or treating vascular diseases comprising the same as an active ingredient” (Gachon University of Industry-Academic Cooperation …, priority 2017, published 2019)
